Reference: patent US9328125B2, “Bivalent AMPA receptor positive allosteric modulators” (The Board of Regents of the University of Texas System, priority 2012, dated 2016)
Like-named read-outs stand apart in the source and are kept apart here.

Key:
[1] = system: PCP-induced caspase-3 activity; experiment: PCP-induced caspase-3 enzyme activity in organotypic cortical-striatal slices, modulation of the (±)AMPA effect; assay type: cell-based, rat; conditions: for modulation of AMPA effect on PCP-induced caspase-3 activity, in words: AMPA 1 μM, FIG. 2A-2B; for IC50: Rattus norvegicus
Description: The inventors have designed and chemically synthesized a class of new bivalent AMPAR ligands (see examples in Table 1). […] The neuroprotective effect of (±)APMA on PCP-induced caspase-3 activities was potentiated by cyclothiazide (CTZ) and aniracetam, two existing AMPAR ligands (approximate IC50 1-3 μM, FIG. 2A for CTZ).
B. Measurement of Caspase-3 Enzyme Activities
Compounds showing significant AMPAR PAM effects on glutamate-induced calcium influx in HEK293 expressing hGluA1i/3i were further tested for their ability to prevent PCP-induced caspase-3 activation in our established in vitro organotypic slice model (Wang et al., Neuropsychopharmacology 32(5): 1178-1194, 2007). Initial screening includes two steps. In step one, all candidates were tested in a single experiment to determine an appropriate approximate concentration range for its effect on PCP-induced caspase-3 activity by adding eight serial concentrations of the compound at log intervals (0, 0.0001-10 μM). Compounds showing promising ˜IC50 (<10 μM) and slope (0.8-1.20) was further screened in a paradigm in which each selected compound was tested in 3 independent experiments to determine its IC50 and slope values by adding eight serial concentrations of the compound at approximately half-log intervals. For all initial screening experiments, rat organotypic brain slice cultures were prepared as previously described (Wang et al., Neuropsychopharmacology 32(5): 1178-1194, 2007). All experiments were executed on DIV10. In each experiment, the slices were pre-treated with the solution vehicle (0.1% DMSO) or 6 serial concentrations of the new compounds for 15 min, followed with (±)APMA (1 μM) (or its vehicle, 0.1% DMSO) for another 15 min. PCP (3 μM) or its vehicle (saline) was added and incubation continued for 6 hrs. The superficial cortical layers of each treated slice were harvested with the aid of an inverted microscopy and placed into ice-cold lysis buffer. Supernatants were collected and caspase-3 activity measured as described previously (Wang et al., Neuropsychopharmacology 32(5): 1178-1194, 2007). Caspase-3 activity was measured over 60 min and calculated as the difference between the substrate degradation rate in samples containing and those not containing Z-DEVD-FMK, a selective caspase-3 inhibitor. Data are expressed as DEVDase activity (AFC pmoles/mg protein/60 min). Protein was measured by the bicinchoninic acid (BCA) technique (Smith et al., 1985), using bovine serum albumin as standards. Each activity measurement was averaged from duplicate samples. Baseline activity (saline treated) was subtracted from all treatments. The caspase-3 activity of in slices incubated with PCP alone served as a positive control. Each compound's activity was normalized to the protective effect of (±)AMPA against PCP (100%). IC50 and slope values were analyzed and determined with the SigmaPlot four-parameter equation as described previously (Petukhov et al., J Med Chem 47(12): 3009-3018, 2004). Each compound's IC50 and slope values were determined from data in at least 3 individual experiments. Group data is reported as mean±SEM.

[2] = system: PCP-induced cleaved caspase-3 immunoreactive neurons in frontal cortex (M2/1); experiment: Image analysis of cleaved caspase-3 immunoreactive neurons in frontal cortex (M2/1) of PND7 rats exposed to PCP; assay type: in vivo, rat
Description: Cleaved caspase-3 immunoreactive neurons, 8 hrs on PND7 after Saline (A) or PCP (10 mg/kg, sc, B-E) without (A-B) or with (C-E) pretreatment (30 min prior to PCP) of HJC-1-22 (C, 0.1 mg/kg; D, 1 mg/kg; E, 10 mg/kg, sc) were shown.
C. Image Analysis of Cleaved Caspase-3 Immunoreactive Neurons
PCP induces developmental neuroapoptosis via caspase-3 activation in vulnerable neurons (Wang et al., Neuropsychopharmacology 32(5): 1178-1194, 2007). Caspase-3 activation in vivo can be observed by immunohistochemistry with specific antibodies against cleaved caspase-3 protein and quantified by image analysis of cleaved caspase-3 immunoreactive neurons in specific brain region(s) or sub-region(s) in developing brain. Compounds showing significant AMPAR PAM effects on glutamate-induced calcium influx in HEK293 expressing hGluA1i/3i and significant preventive effect on PCP-induced caspase-3 enzyme activities in organotypic slices were further defined their abilities to block PCP-induced apoptosis in vivo.
PND7 rat pups were used in the in vivo studies. […]
In step 1, each candidate was tested in two (n=2) individual experiments by using PND7 rat pups from 2 different liters. […] The activity percentages (%) of each dose vs. PCP were calculated to estimate its IC50 which was used to determine its in vivo effective dose range for the step 2 study. […]

AMPA receptor = experiment: Glutamate (100 μM)-evoked calcium influx in DIV9 dissociated rat forebrain neurons; assay type: cell-based; conditions: for EC50 / Emax (%) / pEC50 (-logEC50): Glutamate (100 μM)-evoked Ca2+ influx; for enhancement of glutamate-evoked calcium influx, in words: glutamate 100 μM, DIV9 dissociated rat forebrain neurons cultured on PND1
Text: Fluorometric readings were taken from each well every 1.7 seconds for 20 seconds before any addition to record baseline value and for 70 seconds after addition of any compound(s) to monitor the induced changes of calcium influx. Each well's peak fluorescence reading after addition of compound(s) represents effect of a certain concentration of a given compound(s) after subtracting the average baseline fluorescence. Peak fluorometric reading from duplicate or triplicate wells was averaged, and represents the effect of a certain concentration on calcium influx after subtracting control value. […] points were fitted with a sigmoidal function (bottom asymptote=100, nHill=1) by using Prism from GraphPad (San Diego, Calif.) to determine the compound's EC50 (affinity or potency). Each compound's EC50 was summarized from at least 3 individual experiments and presented as the mean±SE.

morphine tolerance = experiment: Morphine tolerance, tail-flick test; assay type: in vivo, mouse; conditions: 10 mg/kg
Description: The tail-flick test was used to determine basal nociception and morphine antinociception as described previously (Wang et al., J Neurosci 21:1779-86, 2001; Tang et al., J Pharmacol Exp Ther 317:901-909, 2006). In brief, One third of the distal portion of mouse tail was immersed into a water bath maintained at 52° C., and the latency of a quick tail-flick response was recorded. Morphine-antinociception was evaluated 30 min after a test dose of morphine (10 mg/kg s.c. unless otherwise stated) and is expressed as the percentage of maximal possible effect (MPE). MPE %=100%×(postdrug latency−predrug latency)/(cutoff−predrug latency). A 12-s cutoff time was used to prevent tissue damage (FIG. 9A and FIG. 10A).
(§1) G. Chronic Opioid Tolerance and Dependence.
(§2) To induce chronic opioid tolerance and dependence, mice were treated with morphine (10 mg/kg s.c., given at 8:00 AM and 6:00 PM) for 5 days (Herz and Teschemacher, Experientia 29:64-65, 1973). Control mice received an equal number and volume of injections with saline. Morphine tolerance and naloxone-precipitated withdrawal were evaluated. Haloperidol (0.1-1.0 mg/kg i.p. or p.o.) was given 30 min before the test dose of morphine or naloxone (FIG. 9B and FIG. 10B).

[3] = system: morphine physical dependence; experiment: Morphine physical dependence, naloxone-precipitated withdrawal; assay type: in vivo, mice; conditions: 10 mg/kg
Description: as §1, §2

[4] = organotypic slices, (±)AMPA 1 μM, PCP 3 μM, read-out: IC50, modulation of (±)AMPA effect on PCP-induced caspase-3 activity
[5] = existing AMPAR ligands, FIG. 2A for CTZ, read-out: approximate IC50, potentiation of neuroprotective effect of (±)AMPA on PCP-induced caspase-3 activities

SMILES | modulation of AMPA effect on PCP-induced caspase-3 activity, in words ([1]; PCP 3 μM) | EC50 (AMPA receptor) | Emax (%) (AMPA receptor) | pEC50 (-logEC50) (AMPA receptor) | enhancement of glutamate-evoked calcium influx, in words (AMPA receptor) | other results
CC(C)S(=O)(=O)NC[C@H](C)c1ccc(-n2ccc3cc(C(=O)N4CCCCC4)ccc32)cc1 [HJC-1-24, Propane-2-sulfonic acid (2-{4-[5-(piperidine-1-carbonyl)-indol-1-yl]-phenyl}-propyl)amide] | displayed more potent activity than LY451395 |  |  |  |  | IC50 [1, 4]: 5 nM; fold more potent than CTZ (IC50, caspase-3 activity) ([1]; versus CTZ): at least 200 fold
CC(C)S(=O)(=O)NC[C@H](C)c1ccc(-c2ccnc(C(=O)N3CCCC3)c2)cc1 [HJC-1-22, Propane-2-sulfonic acid (2-{4-[2-(pyrrolidine-1-carbonyl)-pyridin-4-yl]phenyl}-propyl)-amide] | displayed more potent activity than LY451395 | 6.53 nM | 170.0% | 8.28 | enhanced glutamate (100 μM)-evoked calcium influx in a concentration-dependent manner | IC50 [1, 4]: 15 nM; prevention of PCP (10 mg/kg)-induced caspase-3 activation in frontal cortex ([2]; 10 mg/kg sc, 30 min prior to PCP (10 mg/kg, sc)): 85%; effect on PCP-induced cleaved caspase-3 immunoreactive neurons in frontal cortex (M2/1), in words ([2]; 0.1, 1, 10 mg/kg sc, 30 min prior to PCP, 8 hrs): significantly reduced PCP-induced cleaved caspase-3 immunoreactive neurons; reversal of established morphine tolerance (morphine tolerance; FIG. 9A): reversed established morphine tolerance; prevention of development of morphine tolerance (morphine tolerance; FIG. 10A): prevented the development of morphine tolerance; reversal of morphine physical dependence ([3]; FIG. 9B): partially reversed physical dependence; prevention of morphine physical dependence ([3]; FIG. 10B): partially prevented physical dependence
COc1ccc(C(=O)N2CCCC2=O)cc1 [aniracetam, reference compound] |  |  |  |  |  | IC50 [1, 5]: 1000 to 3000 nM
CC(C)S(=O)(=O)NC[C@H](C)c1ccc(-n2ccc3ncccc32)cc1 [HJC0229, Propane-2-sulfonic acid [2-(4-pyrrolo[3,2-b]pyridin-1-yl-phenyl)-propyl]amide] |  | 8.76 nM | 168.9% | 8.06 |  | 
NS(=O)(=O)c1cc2c(cc1Cl)NC(C1CC3C=CC1C3)NS2(=O)=O (centres unmarked) [CTZ, cyclothiazide, reference compound] | concentration-dependent fashion |  |  |  |  | IC50 [1, 5]: 1000 to 3000 nM
CC(C)S(=O)(=O)NC[C@H](C)c1ccc(-c2ccc(CCNS(C)(=O)=O)cc2)cc1 [LY451395, reference compound] |  |  |  |  | enhanced glutamate (100 μM)-evoked calcium influx in a concentration-dependent manner | 
CC(C)S(=O)(=O)NC[C@H](C)c1ccc(-c2ccc(CCN3CCCC3=O)cc2)cc1 [HJC0173, Propane-2-sulfonic acid (2-{4′-[2-(2-oxo-pyrrolidin-1-yl)-ethyl]-biphenyl-4-yl}-propyl)amide] |  | 4.02 nM | 127.1% | 8.39 |  | 
CC(C)S(=O)(=O)NC[C@H](C)c1ccc(-n2ccc3cc(C(=O)N4CCCC4)ccc32)cc1 [HJC0210, Propane-2-sulfonic acid (2-{4-[5-(pyrrolidine-1-carbonyl)-indol-1-yl]-phenyl}-propyl)amide] |  | 0.06 nM | 157.5% | 10.21 | enhanced glutamate (100 μM)-evoked calcium influx in a concentration-dependent manner | 
